Reference: patent US7348425B2, “Inhibitors of HCV replication” (Bristol-Myers Squibb Company, priority 2004, dated 2008)

Key:
[1] = system: HCV replicon; test: HCV replicon FRET assay; assay type: cell-based; conditions: Hepatitis C virus; FRET assay; read-out: EC50
Protocol: The IC50 values for compounds were determined using seven different [I]. IC50 values were calculated from the inhibition using the formula y=A+((B−A)/(1+((C/x)^D))). FRET Assay Preparation. To perform the HCV FRET screening assay, 96-well cell culture plates were used. The FRET peptide (Anaspec, Inc.) (Taliani et al., Anal. Biochem. 240:60-67 (1996), hereby incorporated by reference in its entirety) contains a fluorescence donor, EDANS, near one end of the peptide and an acceptor, DABCYL, near the other end. The fluorescence of the peptide is quenched by […] resonance energy transfer (RET) between the donor and the acceptor, but as the NS3 protease cleaves the peptide the products are released from RET quenching and the fluorescence of the donor becomes apparent. The assay reagent was made as follows: 5× cell Luciferase cell culture lysis reagent from Promega (#E153A) diluted to 1× with dH2O, NaCl added to 150 mM final, the FRET peptide diluted to 20 uM final from a 2 mM stock.
To prepare plates, HCV replicon cells, with or without a Renilla luciferase reporter gene, were trypsinized and placed into each well of a 96-well plate with titrated test compounds added in columns 3 through 12; columns 1 and 2 contained a control compound (HCV protease inhibitor), and the bottom row contained cells without compound. The plates were then placed in a CO2 incubator at 37 degrees C.
Assays. Subsequent to addition of the test compounds described above (FRET Assay Preparation), at various times the plate was removed and Alamar blue solution (Trek Diagnostics, #00-100) was added per well as a measure of cellular toxicity. After reading in a Cytoflour 4000 instrument (PE Biosystems), plates were rinsed with PBS and then used for FRET assay by the addition of 30 ul of the FRET peptide assay reagent described above (FRET Assay Preparation) per well. The plate was then placed into the Cytoflour 4000 instrument which had been set to 340 excite/490 emission, automatic mode for 20 cycles and the plate read in a kinetic mode. Typically, the signal to noise using an endpoint analysis after the reads was at least three-fold. Alternatively, after Alamar blue reading, plates were rinsed with PBS, 50 ul of DMEM (high glucose) without phenol red was added and plates were then used for luciferase assay using the Promega Dual-Glo Luciferase Assay System.
Compound analysis was determined by quantification of the relative HCV replicon inhibition and the relative cytotoxicity values. To calculate cytoxicity values, the average Alamar Blue fluorescence signals from the control wells were set as 100% non-toxic. The individual signals in each of the compound test wells were then divided by the average control signal and multiplied by 100% to determine […]. To calculate the HCV replicon inhibition values, an average background value was obtained from the two wells containing the highest amount of HCV protease inhibitor at the end of the assay period. These numbers were similar to those obtained from naïve Huh-7 cells.
The background numbers were then subtracted from the average signal obtained from the control wells and this number was used as 100% activity. The individual signals in each of the compound test wells were then divided by the averaged control values after background subtraction and multiplied by 100% to determine percent activity. EC50 values for a protease inhibitor titration were calculated as the concentration which caused a 50% reduction in FRET or luciferase activity. The two numbers generated for the compound plate, percent cytoxicity and percent activity were used to determine compounds of interest for further analysis.

[2] = target: T1, HCV NS5B RdRp genotype 1b (Hepatitis C virus genotype 1b, UniProt Q9WMX2); test: Modified HCV NS5B RdRp enzyme assay (with preincubation); assay type: biochemical; conditions: modified method (with preincubation)
T1 construct: The protein was expressed with an 18 amino acid C-terminal truncation to enhance the solubility; made in house; host or cells: E. coli BL21 (DE3), pET21a
T1 sequence (Q9WMX2 2420-2992): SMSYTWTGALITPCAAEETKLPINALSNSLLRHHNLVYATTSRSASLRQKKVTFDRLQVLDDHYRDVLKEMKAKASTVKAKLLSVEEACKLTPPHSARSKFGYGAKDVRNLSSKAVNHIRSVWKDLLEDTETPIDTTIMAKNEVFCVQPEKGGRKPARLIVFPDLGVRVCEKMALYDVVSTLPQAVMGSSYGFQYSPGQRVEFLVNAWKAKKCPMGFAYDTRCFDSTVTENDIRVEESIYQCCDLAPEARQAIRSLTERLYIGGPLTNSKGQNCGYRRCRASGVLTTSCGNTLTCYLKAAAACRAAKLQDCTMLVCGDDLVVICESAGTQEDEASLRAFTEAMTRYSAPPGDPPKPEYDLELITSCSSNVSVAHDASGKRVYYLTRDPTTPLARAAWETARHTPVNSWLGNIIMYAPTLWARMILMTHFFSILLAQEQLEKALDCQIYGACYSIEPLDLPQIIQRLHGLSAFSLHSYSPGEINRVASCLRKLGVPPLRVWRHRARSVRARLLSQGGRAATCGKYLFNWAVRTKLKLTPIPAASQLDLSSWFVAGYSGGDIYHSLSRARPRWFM
Protocol: HCVNS5B RdRp cloning, expression, and purification. The cDNA encoding the NS5B protein of HCV, genotype 1b, was cloned into the pET21a expression vector. The protein was expressed with an 18 amino acid C-terminal truncation to enhance the solubility. The E. coli competent cell line BL21 (DE3) was used for expression of the protein. Cultures were grown at 37° C. for ˜4 hours until the cultures reached an optical density of 2.0 at 600 nm. The cultures were cooled to 20° C. and induced with 1 mM IPTG. Fresh ampicillin was added to a final concentration of 50 μg/ml and the cells were grown overnight at 20° C.
Cell pellets (3 L) were lysed for purification to yield 15-24 mgs of purified NS5B. The lysis buffer consisted of 20 mM Tris-HCl, pH 7.4, 500 mM NaCl, 0.5% triton X-100, 1 mM DTT, 1 mM EDTA, 20% glycerol, 0.5 mg/ml lysozyme, 10 mM MgCl2, 15 ug/ml deoxyribonuclease I, and Complete TM protease inhibitor tablets (Roche). After addition of the lysis buffer, frozen cell pellets were resuspended using a tissue homogenizer. To reduce the viscosity of the sample, aliquots of the lysate were sonicated on ice using a microtip attached to a Branson sonicator. The sonicated lysate was centrifuged at 100,000×g for 1 hr at 4° C. and filtered through a 0.2 μm filter unit (Corning).
The protein was purified using three sequential chromatography steps: Heparin sepharose CL-6B, polyU sepharose 4B, and Hitrap SP sepharose (Pharmacia). The chromatography buffers were identical to the lysis buffer but contained no lysozyme, deoxyribonuclease I, MgCl2 or protease inhibitor and the NaCl concentration of the buffer was adjusted according to the requirements for charging the protein onto the column. Each column was eluted with a NaCl gradient which varied in length from 5-50 column volumes depending on the column type. After the final chromatography step, the resulting purity of the enzyme is >90% based on SDS-PAGE analysis. The enzyme was aliquoted and stored at −80° C.
Standard HCV NS5B RdRp enzyme assay. HCV RdRp genotype Ib assays were run in a final volume of 60 μl in 96 well plates (Costar 3912). The assay buffer is composed of 20 mM Hepes, pH 7.5, 2.5 mM KCl, 2.5 mM MgCl2, 1 mM DTT, 1.6 U RNAse inhibitor (Promega N2515), 0.1 mg/ml BSA (Promega R3961), and 2% glycerol. All compounds were serially diluted (3-fold) in DMSO and diluted further in water such that the final concentration of DMSO in the assay was 2%. HCV RdRp genotype 1b enzyme was used at a final concentration of 28 nM. A polyA template was used at 6 nM, and a biotinylated oligo-dT12 primer was used at 180 nM final concentration. Template was obtained commercially (Amersham 27-4110). Biotinylated primer was prepared by Sigma Genosys. ^3H-UTP was used at 0.6 μCi (0.29 μM total UTP). Reactions were initiated by the addition of enzyme, incubated at 30° C. for 60 min, and stopped by adding 25 μl of 50 mM EDTA containing SPA beads (4 μg/μl, Amersham RPNQ 0007). Plates were read on a Packard Top Count NXT after >1 hr incubation at room temperature.
Modified HCV NS5B RdRp enzyme assay. A modified enzyme assay was performed essentially as described for the standard enzyme assay except for the following: The biotinylated oligo dT12 primer was precaptured on streptavidin-coated SPA beads by mixing primer and beads in assay buffer and incubating at room temperature for one hour. Unbound primer was removed after centrifugation. The primer-bound beads were resuspended in 20 mM Hepes buffer, pH 7.5 and used in the assay at final concentrations of 20 nM primer and 0.67 μg/μl beads. Order of addition in the assay: enzyme (14 nM) was added to diluted compound followed by the addition of a mixture of template (0.2 nM), ^3H-UTP (0.6 μCi, 0.29 μM), and primer-bound beads, to initiate the reaction; concentrations given are final. Reactions were allowed to proceed for 4 hours at 30° C.
The IC50 values for compounds were determined using seven different [I]. […]

Row | Compound | EC50 [1] | IC50 [2]
1 | O=C(NC1(C(=O)Nc2ccc(-c3csc(C(=O)O)n3)cc2)CCCC1)c1ccc2c(C3CCCCC3)c3n(c2c1)CCCc1ccccc1-3 | 10 to 1000 nM | 20 to 1000 nM
2 | O=C(O)c1ccc2c(C3CCCCC3)c3n(c2c1)C/C=C\CN(CCO)c1ccccc1-3 | 1000 to 10000 nM | > 1000 nM
3 | O=C(O)c1ccc2c(C3CCCCC3)c3n(c2c1)CCCCN(CCO)c1ccccc1-3 | 1000 to 10000 nM | > 1000 nM
4 | O=C1Cn2c(c(C3CCCCC3)c3ccc(C(=O)NC4(C(=O)Nc5ccc(-c6cscn6)cc5)CCCC4)cc32)-c2ccccc2N1 | 10 to 1000 nM | 20 to 1000 nM
5 | CC(C)(C)OC(=O)N1C/C=C\Cn2c(c(C3CCCCC3)c3ccc(C(=O)O)cc32)-c2cnccc21 | > 10000 nM | > 1000 nM
6 | O=C(O)/C=C/c1ccc(NC(=O)C2(NC(=O)c3ccc4c(C5CCCCC5)c5n(c4c3)CCOc3ncccc3-5)CCCC2)cc1 | 10 to 1000 nM | 20 to 1000 nM
7 | CC(C)(C)OC(=O)N1CCCCn2c(c(C3CCCCC3)c3ccc(C(=O)O)cc32)-c2cnccc21 | > 10000 nM | > 1000 nM
8 | O=C(O)/C=C/c1ccc(NC(=O)C2(NC(=O)c3ccc4c(C5CCCCC5)c5n(c4c3)CCCN(CCO)c3ccccc3-5)CCCC2)cc1 | 10 to 1000 nM | 20 to 1000 nM
9 | COC(=O)c1ccc2c(C3CCCCC3)c3n(c2c1)CC(C(=O)O)Cc1ccccc1-3 (stereo not drawn) | > 10000 nM | > 1000 nM
10 | O=C(O)c1ccc2c(C3CCCCC3)c3c4ccccc4ncn3c2c1 | > 10000 nM | > 1000 nM
11 | COC(=O)/C=C/c1ccc(NC(=O)C2(NC(=O)c3ccc4c(C5CCCCC5)c5c6ccccc6ncn5c4c3)CCCC2)cc1 | 1000 to 10000 nM | > 1000 nM
12 | NC(=O)C1Cc2ccccc2-c2c(C3CCCCC3)c3ccc(C(=O)NC4(C(=O)Nc5ccc(/C=C/C(=O)O)cc5)CCCC4)cc3n2C1 (stereo not drawn) | 10 to 1000 nM | 20 to 1000 nM
13 | CC(C)(C)OC(=O)N1CC(O)Cn2c(c(C3CCCCC3)c3ccc(C(=O)O)cc32)-c2ccccc21 (stereo not drawn) | 1000 to 10000 nM | 20 to 1000 nM
14 | O=C(O)c1ccc2c(C3CCCCC3)c3n(c2c1)CC(O)CNc1ccccc1-3 (stereo not drawn) | 1000 to 10000 nM | 20 to 1000 nM
15 | O=C(O)c1ccc2c(C3CCCCC3)c3n(c2c1)C[C@@H](O)[C@@H](O)c1ncccc1-3 | 1000 to 10000 nM | 20 to 1000 nM
16 | CNC(=O)C1Cc2ccccc2-c2c(C3CCCCC3)c3ccc(C(=O)NC4(C(=O)Nc5ccc(/C=C/C(=O)O)cc5)CCCC4)cc3n2C1 (stereo not drawn) | 10 to 1000 nM | 20 to 1000 nM
17 | CN1CCN(C(=O)C2Cc3ccccc3-c3c(C4CCCCC4)c4ccc(C(=O)NC5(C(=O)Nc6ccc(/C=C/C(=O)O)cc6)CCCC5)cc4n3C2)CC1 (stereo not drawn) | 10 to 1000 nM | 20 to 1000 nM
18 | CN(C)CCNC(=O)C1Cc2ccccc2-c2c(C3CCCCC3)c3ccc(C(=O)NC4(C(=O)Nc5ccc(/C=C/C(=O)O)cc5)CCCC4)cc3n2C1 (stereo not drawn) | 10 to 1000 nM | 20 to 1000 nM
19 | O=C(O)/C=C/c1ccc(NC(=O)C2(NC(=O)c3ccc4c(C5CCCCC5)c5n(c4c3)CC(C(=O)N3CCC(N4CCCC4)CC3)Cc3ccccc3-5)CCCC2)cc1 (stereo not drawn) | 10 to 1000 nM | 20 to 1000 nM
20 | O=C(O)/C=C/c1ccc(NC(=O)C2(NC(=O)c3ccc4c(C5CCCCC5)c5n(c4c3)CC(C(=O)N3CCCCC3)Cc3ccccc3-5)CCCC2)cc1 (stereo not drawn) | 10 to 1000 nM | 20 to 1000 nM
21 | O=C(O)/C=C/c1ccc(NC(=O)C2(NC(=O)c3ccc4c(C5CCCCC5)c5n(c4c3)CC(C(=O)N3CCCC(O)C3)Cc3ccccc3-5)CCCC2)cc1 (stereo not drawn) | 10 to 1000 nM | 20 to 1000 nM
22 | O=C(O)/C=C/c1ccc(NC(=O)C2(NC(=O)c3ccc4c(C5CCCCC5)c5n(c4c3)CC(C(=O)N3CCN(c4ccncc4)CC3)Cc3ccccc3-5)CCCC2)cc1 (stereo not drawn) | 10 to 1000 nM | 20 to 1000 nM
23 | COC(=O)/C=C/c1ccc(NC(=O)C2(NC(=O)c3ccc4c(C5CCCCC5)c5n(c4c3)C[C@@H](O)[C@@H](O)c3ncccc3-5)CCCC2)cc1 | 10 to 1000 nM | 20 to 1000 nM
24 | O=C(O)/C=C/c1ccc(NC(=O)C2(NC(=O)c3ccc4c(C5CCCCC5)c5n(c4c3)C[C@@H](O)[C@@H](O)c3ncccc3-5)CCCC2)cc1 | 10 to 1000 nM | 20 to 1000 nM
